# How the values were obtained:
# Test in all cases: Microbiological challenge testing in BPW broth, graded subculture counts
# Assay type in all cases: cell-based
# Aeromonas sp. Wild type = tested on: Aeromonas sp. Wild type
# Summary of the method: (§1)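 Serial 1:10 dilutions were made in pH 7.2 phosphate buffer and spread-plated onto PCA, and colonies were counted after 48 h or more at 35 °C. In the challenge, BPW–dextrose tubes containing the test material received inoculum at 10^5–10^6 CFU/mL at time zero. Controls without test material served as reference.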
# [1] = tested on: Staphylococcus epidermidis ATCC 12228
# Summary of the method: as §1
# [2] = tested on: Pseudomonas aeruginosa Wild type; conditions: P. aeruginosa
# Summary of the method: as §1
# [3] = tested on: Staphylococcus aureus ATCC 25923; conditions: S. aureus
# Summary of the method: as §1
# [4] = tested on: Burkholderia cepacia Wild type; conditions: B. cepacia
# Summary of the method: as §1
# [5] = tested on: Streptococcus mutans ATCC 35668
# Summary of the method: as §1
# [6] = tested on: Escherichia coli ATCC 25922; conditions: E. Coli
# Summary of the method: as §1
smiles,measurement,setting,value
"OCC1CCCCC1CO (stereo not drawn) [1,2-CHDM, 1,2-cyclohexanedimethanol]","Aeromonas sp growth grade, 3 day",Aeromonas sp. Wild type; 0.5% weight/volume,"5 (More than 10,000 colonies estimated (thus more than 100,000 CFU/mL))"
same,"Aeromonas sp growth grade, 14 day",Aeromonas sp. Wild type; 0.5% weight/volume,"4 (1000 to 10,000 colonies countable (thus 10,000 CFU/mL to 100,000 CFU/mL))"
same,"Aeromonas sp growth grade, 30 day",Aeromonas sp. Wild type; 0.5% weight/volume,"4 (1000 to 10,000 colonies countable (thus 10,000 CFU/mL to 100,000 CFU/mL))"
same,"Aeromonas sp growth grade, 3 day",Aeromonas sp. Wild type; 1.25% weight/volume,"3 (100 to 1000 colonies (thus 1000 to 10,000 CFU/mL))"
same,"Aeromonas sp growth grade, 14 day",Aeromonas sp. Wild type; 1.25% weight/volume,2 (52 to 100 colonies counted (thus 520 to 1000 CFU/mL))
same,"Aeromonas sp growth grade, 30 day",Aeromonas sp. Wild type; 1.25% weight/volume,1 (0 to 51 colonies counted (thus 10 to 510 CFU/mL based on 0.1-mL sample))
same,"Aeromonas sp growth grade, 3 day",Aeromonas sp. Wild type; 2.5% weight/volume,0
same,"Aeromonas sp growth grade, 14 day",Aeromonas sp. Wild type; 2.5% weight/volume,1 (0 to 51 colonies counted (thus 10 to 510 CFU/mL based on 0.1-mL sample))
same,"Aeromonas sp growth grade, 30 day",Aeromonas sp. Wild type; 2.5% weight/volume,0
same,"Aeromonas sp growth grade, 3 day",Aeromonas sp. Wild type; 5.0% weight/volume,0
same,"Aeromonas sp growth grade, 14 day",Aeromonas sp. Wild type; 5.0% weight/volume,0
same,"Aeromonas sp growth grade, 30 day",Aeromonas sp. Wild type; 5.0% weight/volume,0
same,"S. epidermidis growth grade, 3 day",[1]; 0.5% weight/volume,"4 (1000 to 10,000 colonies countable (thus 10,000 CFU/mL to 100,000 CFU/mL))"
same,"S. epidermidis growth grade, 13 day",[1]; 0.5% weight/volume,"3 (100 to 1000 colonies (thus 1000 to 10,000 CFU/mL))"
same,"S. epidermidis growth grade, 30 day",[1]; 0.5% weight/volume,"4 (1000 to 10,000 colonies countable (thus 10,000 CFU/mL to 100,000 CFU/mL))"
same,"S. epidermidis growth grade, 3 day",[1]; 1.25% weight/volume,2.3
same,"S. epidermidis growth grade, 13 day",[1]; 1.25% weight/volume,1 (0 to 51 colonies counted (thus 10 to 510 CFU/mL based on 0.1-mL sample))
same,"S. epidermidis growth grade, 30 day",[1]; 1.25% weight/volume,"3 (100 to 1000 colonies (thus 1000 to 10,000 CFU/mL))"
same,"S. epidermidis growth grade, 3 day",[1]; 2.5% weight/volume,0
same,"S. epidermidis growth grade, 13 day",[1]; 2.5% weight/volume,0
same,"S. epidermidis growth grade, 30 day",[1]; 2.5% weight/volume,0
same,"S. epidermidis growth grade, 3 day",[1]; 5.0% weight/volume,0
same,"S. epidermidis growth grade, 13 day",[1]; 5.0% weight/volume,0
same,"S. epidermidis growth grade, 30 day",[1]; 5.0% weight/volume,0
same,Grade,"[2]; 0.5% (wt/vol), 3 day","4 (1000 to 10,000 colonies countable (thus 10,000 CFU/mL to 100,000 CFU/mL))"
same,Grade,"[2]; 0.5% (wt/vol), 13 day","4 (1000 to 10,000 colonies countable (thus 10,000 CFU/mL to 100,000 CFU/mL))"
same,Grade,"[2]; 0.5% (wt/vol), 30 day","4 (1000 to 10,000 colonies countable (thus 10,000 CFU/mL to 100,000 CFU/mL))"
same,Grade,"[2]; 1.25% (wt/vol), 3 day",2.7
same,Grade,"[2]; 1.25% (wt/vol), 13 day",1 (0 to 51 colonies counted (thus 10 to 510 CFU/mL based on 0.1-mL sample))
same,Grade,"[2]; 1.25% (wt/vol), 30 day","3 (100 to 1000 colonies (thus 1000 to 10,000 CFU/mL))"
same,Grade,"[2]; 2.5% (wt/vol), 3 day",1 (0 to 51 colonies counted (thus 10 to 510 CFU/mL based on 0.1-mL sample))
same,Grade,"[2]; 2.5% (wt/vol), 13 day",0
same,Grade,"[2]; 2.5% (wt/vol), 30 day",0
same,Grade,"[2]; 5.0% (wt/vol), 3 day",0
same,Grade,"[2]; 5.0% (wt/vol), 13 day",0
same,Grade,"[2]; 5.0% (wt/vol), 30 day",0
same,Grade,"[3]; 0.5% (wt/vol), 3 day","4 (1000 to 10,000 colonies countable (thus 10,000 CFU/mL to 100,000 CFU/mL))"
same,Grade,"[3]; 0.5% (wt/vol), 14 day","4 (1000 to 10,000 colonies countable (thus 10,000 CFU/mL to 100,000 CFU/mL))"
same,Grade,"[3]; 0.5% (wt/vol), 30 day","4 (1000 to 10,000 colonies countable (thus 10,000 CFU/mL to 100,000 CFU/mL))"
same,Grade,"[3]; 1.25% (wt/vol), 3 day",3.3
same,Grade,"[3]; 1.25% (wt/vol), 14 day",2.7
same,Grade,"[3]; 1.25% (wt/vol), 30 day","4 (1000 to 10,000 colonies countable (thus 10,000 CFU/mL to 100,000 CFU/mL))"
same,Grade,"[3]; 2.5% (wt/vol), 3 day",0
same,Grade,"[3]; 2.5% (wt/vol), 14 day",0
same,Grade,"[3]; 2.5% (wt/vol), 30 day",0
same,Grade,"[3]; 5.0% (wt/vol), 3 day",0
same,Grade,"[3]; 5.0% (wt/vol), 14 day",0
same,Grade,"[3]; 5.0% (wt/vol), 30 day",0
same,Grade,"[4]; 0.5% (wt/vol), 3 day","4 (1000 to 10,000 colonies countable (thus 10,000 CFU/mL to 100,000 CFU/mL))"
same,Grade,"[4]; 0.5% (wt/vol), 14 day","4 (1000 to 10,000 colonies countable (thus 10,000 CFU/mL to 100,000 CFU/mL))"
same,Grade,"[4]; 0.5% (wt/vol), 30 day","4 (1000 to 10,000 colonies countable (thus 10,000 CFU/mL to 100,000 CFU/mL))"
same,Grade,"[4]; 1.25% (wt/vol), 3 day",1 (0 to 51 colonies counted (thus 10 to 510 CFU/mL based on 0.1-mL sample))
same,Grade,"[4]; 1.25% (wt/vol), 14 day",0
same,Grade,"[4]; 1.25% (wt/vol), 30 day",0
same,Grade,"[4]; 2.5% (wt/vol), 3 day",0
same,Grade,"[4]; 2.5% (wt/vol), 14 day",0
same,Grade,"[4]; 2.5% (wt/vol), 30 day",0
same,Grade,"[4]; 5.0% (wt/vol), 3 day",0
same,Grade,"[4]; 5.0% (wt/vol), 14 day",0
same,Grade,"[4]; 5.0% (wt/vol), 30 day",0
same,"S. mutans growth grade, 3 day",[5]; 0.5% weight/volume,"4 (1000 to 10,000 colonies countable (thus 10,000 CFU/mL to 100,000 CFU/mL))"
same,"S. mutans growth grade, 13 day",[5]; 0.5% weight/volume,"4 (1000 to 10,000 colonies countable (thus 10,000 CFU/mL to 100,000 CFU/mL))"
same,"S. mutans growth grade, 30 day",[5]; 0.5% weight/volume,"4 (1000 to 10,000 colonies countable (thus 10,000 CFU/mL to 100,000 CFU/mL))"
same,"S. mutans growth grade, 3 day",[5]; 1.25% weight/volume,2 (52 to 100 colonies counted (thus 520 to 1000 CFU/mL))
same,"S. mutans growth grade, 13 day",[5]; 1.25% weight/volume,0
same,"S. mutans growth grade, 30 day",[5]; 1.25% weight/volume,0
same,"S. mutans growth grade, 3 day",[5]; 2.5% weight/volume,1 (0 to 51 colonies counted (thus 10 to 510 CFU/mL based on 0.1-mL sample))
same,"S. mutans growth grade, 13 day",[5]; 2.5% weight/volume,0
same,"S. mutans growth grade, 30 day",[5]; 2.5% weight/volume,0
same,"S. mutans growth grade, 3 day",[5]; 5.0% weight/volume,0
same,"S. mutans growth grade, 13 day",[5]; 5.0% weight/volume,0
same,"S. mutans growth grade, 30 day",[5]; 5.0% weight/volume,0
same,Grade,"[6]; 0.5% (wt/vol), 3 day","5 (More than 10,000 colonies estimated (thus more than 100,000 CFU/mL))"
same,Grade,"[6]; 0.5% (wt/vol), 14 day","4 (1000 to 10,000 colonies countable (thus 10,000 CFU/mL to 100,000 CFU/mL))"
same,Grade,"[6]; 0.5% (wt/vol), 30 day","4 (1000 to 10,000 colonies countable (thus 10,000 CFU/mL to 100,000 CFU/mL))"
same,Grade,"[6]; 1.25% (wt/vol), 3 day","4 (1000 to 10,000 colonies countable (thus 10,000 CFU/mL to 100,000 CFU/mL))"
same,Grade,"[6]; 1.25% (wt/vol), 14 day",2 (52 to 100 colonies counted (thus 520 to 1000 CFU/mL))
same,Grade,"[6]; 1.25% (wt/vol), 30 day","3 (100 to 1000 colonies (thus 1000 to 10,000 CFU/mL))"
same,Grade,"[6]; 2.5% (wt/vol), 3 day",2 (52 to 100 colonies counted (thus 520 to 1000 CFU/mL))
same,Grade,"[6]; 2.5% (wt/vol), 14 day",0
same,Grade,"[6]; 2.5% (wt/vol), 30 day",0
same,Grade,"[6]; 5.0% (wt/vol), 3 day",0
same,Grade,"[6]; 5.0% (wt/vol), 14 day",0
same,Grade,"[6]; 5.0% (wt/vol), 30 day",0

# Source: patent US20100160454A1, “ANTIMICROBIAL AGENTS, COMPOSITIONS AND PRODUCTS CONTAINING THE SAME, AND METHODS OF USING THE COMPOSITIONS AND PRODUCTS” (Eastman Chemical Company, priority 2008, published 2010)
